Results on 3 compounds are retold here after ChEMBL document CHEMBL1125990, “Synthesis of novel 1-nitrogen replaced carbocyclic thymidine analogs as potential anti aids agents” (Bioorg Med Chem Lett, 1991).

The source made the active and inactive calls. No cut-off for these calls is given here.

The test system of the test is Human immunodeficiency virus 1. As to the kind of experiment: Tested for activity against HIV in cell culture at concentration of 100 ug/mL; NA denotes no activity. It is filed as functional, organism-based.
Take `Cc1cn(N2CC(F)C(CO)C2)c(=O)[nH]c1=O` (stereo not drawn): the result was inactive.
With `Cc1cn(N2CC(O)C(CO)C2)c(=O)[nH]c1=O` (stereo not drawn) the entry was “inactive”.
Then `Cc1cn(N2CC(CO)C(N=[N+]=[N-])C2)c(=O)[nH]c1=O` (stereo not drawn), with “inactive”.
